Laboratory results reported in patent US3983239A, “Hexahydro-γ-carboline derivatives and their salts” (priority 1974, dated 1976).
Like-named read-outs stand apart in the source and are kept apart here.

Tests used:
[1] = system: methamphetamine-induced stereotypy; test: Potentiation of methamphetamine-induced stereotypy; assay type: in vivo, male Wistar HLA rats; design: key: ---: Marked antagonism; --: Moderate antagonism; -: Slight antagonism; 0: No interaction; +: Slight potentiation; ++: Moderate potentiation; +++: Marked potentiation; details: methamphetamine 2 mg/kg i.p.
Method: 1. Potentiation of methamphetamine-induced stereotypy
This test was carried out by a modified method of R. T. Naylor (Life Sci., Vol. 10, page 909, 1971).
To male Wistar HLA rats, weighing 200 to 250 g (each group: 6 rats), were intraperitoneally administered the compounds to be tested. After 20 minutes, methamphetamine (2 mg/kg) was intraperitoneally administered to the test animals, and then the appeared stereotypy was observed. The effects of the test compounds were evaluated by the intensity of the stereotypy and the termination thereof.

locomotion [2] = test: Inhibiting activity of locomotion, rats (Open-field method); assay type: in vivo; details: Rattus norvegicus, read-out: ED50 value, inhibiting activity of locomotion
Description: 3) Open-field method [C.S. Hall; J. Comp. Physiol. Psychol.

[3] = system: conditioned avoidance response; test: Inhibiting activity of conditioned avoidance response, rats (Shuttle box method); assay type: in vivo; details: Rattus norvegicus, po, read-out: ED50 value, inhibiting activity of conditioned avoidance response
Acute toxicity, mice = details: mouse, in vivo; for LD50 at 96 h: observed 4 days
Description: (§1) Male and female STD-dd Y mice, weighing 20 to 22 g (each group: 10 mice) and male Wistar HLA rats, weighing 250 to 300 g (each group: 10 to 20 rats) were used.

catalepsy = test: Cataleptogenic activity, rats; assay type: in vivo; details: Rattus norvegicus, po, read-out: ED50 value, cataleptogenic activity
Description: The compounds of the present invention show the same central nervous system depressing pattern as the existing neuroleptics, such as an inhibiting activity of locomotion, an inhibiting activity of conditioned avoidance response, a cataleptogenic activity, a muscle relaxant activity, an inhibiting activity of self-stimulation, and an anti-methamphetamine activity in terms of locomotor activity.

self-stimulation = test: Inhibiting activity of self-stimulation, rats; assay type: in vivo; details: Rattus norvegicus, po, read-out: ED50 value, inhibiting activity of self-stimulation
Description: 8) J. Olds et al; J. Comp. Physiol. Psychol., Vol. 47, page

muscle relaxant activity = test: Muscle relaxant activity, rats; assay type: in vivo; details: Rattus norvegicus, read-out: ED50 value, muscle relaxant activity
locomotion [4] = test: Inhibiting activity of locomotion, mice (Animex method); assay type: in vivo; details: Mus musculus, po, read-out: ED50 value, inhibiting activity of locomotion
[5] = system: conditioned avoidance response; test: Inhibiting activity of conditioned avoidance response, mice; assay type: in vivo; details: Mus musculus, po, read-out: ED50 value, inhibiting activity of conditioned avoidance response
Acute toxicity, rats = details: rat, in vivo, male, observed 4 days
Description: as §1

Compound	Stereotypy Intensity ([1]; 2.0 mg/kg i.p.)	Stereotypy Termination ([1]; 2.0 mg/kg i.p.)	Stereotypy Intensity ([1]; 5.0 mg/kg i.p.)	Stereotypy Termination ([1]; 5.0 mg/kg i.p.)	Stereotypy Intensity ([1]; 10.0 mg/kg i.p.)	Stereotypy Termination ([1]; 10.0 mg/kg i.p.)	Stereotypy Intensity ([1]; 1.0 mg/kg i.p.)	Stereotypy Termination ([1]; 1.0 mg/kg i.p.)	further results
CCc1ccc2c(c1)C1CN(CCCC(=O)c3ccc(F)cc3)CCC1N2.Cl.Cl (stereo not shown) [B, 8-Ethyl-2-[γ-(p-fluorobenzoyl)propyl]-2,3,4,4a,5,9b-hexahydro-1H-pyrido[4,3-b]indole dihydrochloride]	+	+	+++	+++	+++	+++			
Cc1ccc2c(c1)C1CN(CCCC(=O)c3ccc(F)cc3)CCC1N2C.Cl.Cl (stereo not shown) [C, 5,8-Dimethyl-2-[γ-(p-fluorobenzoyl)propyl]-2,3,4,4a,5,9b-hexahydro-1H-pyrido[4,3-b]indole dihydrochloride]	0	0	++	++	++	+++	0	0	
CN(C)CCCN1c2ccccc2Sc2ccc(Cl)cc21 [Chlorpromazine]	0	0	--	+	---	---			ED50 (locomotion [2]; ip): 2.41 mg/kg; ED50 (locomotion [2]; po): 9.88 mg/kg; ED50 [3]: 7.04 mg/kg; LD50 at 168 h (Acute toxicity, mice; po, male, observed 7 days): 476 mg/kg; ED50 (catalepsy): 16.1 mg/kg; ED50 (self-stimulation): 7.04 mg/kg; ED50 (muscle relaxant activity; ip): 2.07 mg/kg; ED50 (muscle relaxant activity; po): 4.38 mg/kg; ED50 (locomotion [4]): 6.34 mg/kg; ED50 [5]: 5.65 mg/kg
CN1CCN(C2=Nc3cc(Cl)ccc3Nc3ccccc32)CC1 [Clozapine, 8-chloro-11-(4-methyl-1-piperazinyl)-5H-dibenzo[b,e][1,4]-diazepine]									ED50 (locomotion [2]; ip, rats, i.p.): 5.54 mg/kg; ED50 (locomotion [2]; po, rats, p.o.): 27.4 mg/kg; ED50 ([3]; rats, p.o.): 34.7 mg/kg; LD50 at 96 h (Acute toxicity, mice; iv, male): 37 mg/kg; LD50 at 96 h (Acute toxicity, mice; po, female): 212 mg/kg; LD50 at 96 h (Acute toxicity, mice; po, male): 202 mg/kg; LD50 at 96 h (Acute toxicity, mice; sc, male): 194 mg/kg; LD50 at 96 h (Acute toxicity, rats; iv): 42 mg/kg; LD50 at 96 h (Acute toxicity, rats; po): 251 mg/kg; LD50 at 96 h (Acute toxicity, rats; sc): 272 mg/kg; ED50 (catalepsy; rats, p.o.): > 100 mg/kg; ED50 (self-stimulation; rats, p.o.): 61.8 mg/kg; ED50 (muscle relaxant activity; ip, rats, i.p.): 5.41 mg/kg; ED50 (muscle relaxant activity; po, rats, p.o.): 28.1 mg/kg; ED50 (locomotion [4]; mice, p.o.): 7.5 mg/kg; ED50 ([5]; mice, p.o.): 9.75 mg/kg
CCN1c2ccc(C)cc2C2CN(CCCC(=O)c3ccc(F)cc3)CCC21.Cl.Cl (stereo not shown) [D, 5-Ethyl-8-methyl-2-[γ-(p-fluorobenzoyl)propyl]-2,3,4,4a,5,9b-hexahydro-1H-pyrido[4,3-b]indole dihydrochloride]	0	0	+	++	+++	+++	0	0	
O=C(CCCN1CCC(O)(c2ccc(Cl)cc2)CC1)c1ccc(F)cc1 [Haloperidol]							---	--	Stereotypy Intensity ([1]; 0.1 mg/kg i.p.): 0; Stereotypy Termination ([1]; 0.1 mg/kg i.p.): -; Stereotypy Intensity ([1]; 0.2 mg/kg i.p.): -; Stereotypy Termination ([1]; 0.2 mg/kg i.p.): --; Stereotypy Intensity ([1]; 0.5 mg/kg i.p.): -- -; Stereotypy Termination ([1]; 0.5 mg/kg i.p.): --
Cc1ccc2[nH]c3c(c2c1)CN(CCCC(=O)c1ccc(F)cc1)CC3.Cl [compound 1, 8-Methyl-2-[γ-(p-fluorobenzoyl)propyl]-2,3,4,5-tetrahydro-1H-pyrido[4,3-b]indole hydrochloride]	0	0	0	0	0	0	0	0	
Cl.Cl.O=C(CCCN1CCC2Nc3ccccc3C2C1)c1ccc(F)cc1 (stereo not shown) [compound 2, 2-[γ-(p-Fluorobenzoyl)propyl]-2,3,4,4a,5,9b-hexahydro-1H-pyrido[4,3-b]indole dihydrochloride]	0	0	0	0	-	0	0	0	
Cl.Cl.O=C(CCCN1CCC2Nc3ccc(F)cc3C2C1)c1ccc(F)cc1 (stereo not shown) [compound 3, 8-Fluoro-2-[γ-(p-fluorobenzoyl)propyl]-2,3,4,4a,5,9b-hexahydro-1H-pyrido[4,3-b]indole dihydrochloride]	0	0	-	-	--	--	0	0	
COc1ccc2c(c1)C1CN(CCCC(=O)c3ccc(F)cc3)CCC1N2.Cl.Cl (stereo not shown) [compound 4, 8-Methoxy-2-[γ-(p-fluorobenzoyl)propyl]-2,3,4,4a,5,9b-hexahydro-1H-pyrido[4,3-b]indole dihydrochloride]	0	0	0	0	--	0	0	0	
